Source: the supplement of paper PMC10307832

Assays:
Assay in all cases: relative viability (nuclei count vs DMSO), 5 days (fraction); higher = more cells survive
Bleomycin + AZD7762 = compound: CC1=C(N=C(N=C1N)[C@H](CC(=O)N)NC[C@@H](C(=O)N)N)C(=O)N[C@@H]([C@H](C2=CN=CN2)OC3C(C(C(C(O3)CO)O)O)OC4C(C(C(C(O4)CO)O)OC(=O)N)O)C(=O)N[C@H](C)[C@H]([C@H](C)C(=O)N[C@@H]([C@@H](C)O)C(=O)NCCC5=NC(=CS5)C6=NC(=CS6)C(=O)NCCC[S+](C)C)O [Bleomycin] + NC(=O)Nc1cc(-c2cccc(F)c2)sc1C(=O)N[C@H]1CCCNC1 [AZD7762] (partner 0.2 µM); conditions: main component drawn
How it was run: (§1)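 Values are medians from duplicate plates. Each reflects relative viability, defined as the nuclei count of treated wells over that of vehicle wells. Lung cancer cell lines in 1536-well plates were pin-tool dosed one day after seeding with one drug alone or with a fixed anchor-drug dose plus five library-drug doses (not always all listed) in √10 steps, then fixed, stained and imaged at 4× after 5 days.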

Bleomycin + Tozasertib = compound: CC1=C(N=C(N=C1N)[C@H](CC(=O)N)NC[C@@H](C(=O)N)N)C(=O)N[C@@H]([C@H](C2=CN=CN2)OC3C(C(C(C(O3)CO)O)O)OC4C(C(C(C(O4)CO)O)OC(=O)N)O)C(=O)N[C@H](C)[C@H]([C@H](C)C(=O)N[C@@H]([C@@H](C)O)C(=O)NCCC5=NC(=CS5)C6=NC(=CS6)C(=O)NCCC[S+](C)C)O [Bleomycin] + Cc1cc(Nc2cc(N3CCN(C)CC3)nc(Sc3ccc(NC(=O)C4CC4)cc3)n2)n[nH]1 [Tozasertib] (partner 0.1 µM); conditions: main component drawn
How it was run: as §1

Bleomycin + Pemetrexed = compound: CC1=C(N=C(N=C1N)[C@H](CC(=O)N)NC[C@@H](C(=O)N)N)C(=O)N[C@@H]([C@H](C2=CN=CN2)OC3C(C(C(C(O3)CO)O)O)OC4C(C(C(C(O4)CO)O)OC(=O)N)O)C(=O)N[C@H](C)[C@H]([C@H](C)C(=O)N[C@@H]([C@@H](C)O)C(=O)NCCC5=NC(=CS5)C6=NC(=CS6)C(=O)NCCC[S+](C)C)O [Bleomycin] + Nc1nc2[nH]cc(CCc3ccc(C(=O)N[C@@H](CCC(=O)O)C(=O)O)cc3)c2c(=O)[nH]1 [Pemetrexed] (partner 0.2 µM); conditions: main component drawn
How it was run: as §1

Etoposide + Phenformin = compound: COc1cc([C@@H]2c3cc4c(cc3[C@@H](O[C@@H]3O[C@@H]5CO[C@@H](C)O[C@H]5[C@H](O)[C@H]3O)[C@H]3COC(=O)[C@H]23)OCO4)cc(OC)c1O [Etoposide] + N=C(N)NC(=N)NCCc1ccccc1 [Phenformin] (partner 250 µM)
How it was run: as §1

| Cell Line | relative viability (Bleomycin + AZD7762; first compound 0.01 µM) | relative viability (Bleomycin + AZD7762; first compound 0.03162 µM) | relative viability (Bleomycin + AZD7762; first compound 0.1 µM) | relative viability (Bleomycin + AZD7762; first compound 0.3162 µM) | relative viability (Bleomycin + AZD7762; first compound 1 µM) | relative viability (Bleomycin + Tozasertib; first compound 0.01 µM) | relative viability (Bleomycin + Tozasertib; first compound 0.03162 µM) | relative viability (Bleomycin + Tozasertib; first compound 0.1 µM) | relative viability (Bleomycin + Tozasertib; first compound 0.3162 µM) | relative viability (Bleomycin + Tozasertib; first compound 1 µM) | relative viability (Bleomycin + Pemetrexed; first compound 0.01 µM) | relative viability (Bleomycin + Pemetrexed; first compound 0.03162 µM) | relative viability (Bleomycin + Pemetrexed; first compound 0.1 µM) | relative viability (Bleomycin + Pemetrexed; first compound 0.3162 µM) | relative viability (Bleomycin + Pemetrexed; first compound 1 µM) | relative viability (Etoposide + Phenformin; first compound 0.01 µM) | relative viability (Etoposide + Phenformin; first compound 0.03162 µM) | relative viability (Etoposide + Phenformin; first compound 0.1 µM) | relative viability (Etoposide + Phenformin; first compound 0.3162 µM) | relative viability (Etoposide + Phenformin; first compound 1 µM) |
| --- | --- | --- | --- | --- | --- | --- | --- | --- | --- | --- | --- | --- | --- | --- | --- | --- | --- | --- | --- | --- |
| HCC-78 | 0.607 | 0.683 | 0.599 | 0.528 | 0.493 | 0.335 | 0.356 | 0.357 | 0.269 | 0.355 | 0.895 | 0.969 | 0.88 | 0.832 | 0.826 | 0.708 | 0.824 | 0.582 | 0.499 | 0.226 |
| HCC-366 | 0.305 | 0.231 | 0.156 | 0.065 | 0.0338 | 0.0825 | 0.11 | 0.0755 | 0.0502 | 0.0319 | 0.169 | 0.207 | 0.178 | 0.0708 | 0.0498 | 0.647 | 0.625 | 0.327 | 0.333 | 0.0669 |
| HCC-827 | 0.195 | – | 0.199 | 0.148 | 0.167 | 0.419 | 0.453 | 0.332 | 0.311 | 0.205 | 0.252 | – | 0.25 | 0.235 | 0.207 | 0.413 | 0.412 | 0.338 | 0.315 | 0.156 |
| HOP-62 | 0.325 | 0.292 | 0.209 | 0.16 | 0.0932 | 0.229 | 0.208 | 0.194 | 0.144 | 0.102 | 0.277 | 0.361 | 0.303 | 0.141 | 0.128 | 0.71 | 0.795 | 0.578 | 0.475 | 0.276 |
| NCI-H520 | – | – | – | – | – | 0.412 | 0.422 | 0.486 | 0.33 | 0.358 | 0.731 | 0.757 | 0.653 | 0.443 | 0.446 | 0.487 | 0.585 | – | 0.619 | 0.502 |
| NCI-H661 | – | – | – | – | – | 0.366 | 0.359 | 0.36 | 0.374 | 0.35 | 0.886 | 0.821 | 0.688 | 0.412 | 0.366 | 0.283 | 0.289 | 0.267 | 0.249 | 0.208 |
| NCI-H727 | 0.683 | 0.574 | 0.451 | 0.33 | 0.463 | 0.761 | 0.578 | 0.732 | – | 0.596 | – | – | – | – | – | 0.556 | 0.664 | – | 0.531 | 0.437 |
| NCI-H1563 | – | – | – | – | – | – | – | – | – | – | 0.618 | 0.915 | 0.691 | 0.54 | 0.575 | 0.628 | 0.7 | 0.609 | 0.55 | 0.476 |
| NCI-H1623 | – | – | – | – | – | 0.393 | 0.427 | 0.417 | 0.301 | 0.32 | – | – | – | – | – | 0.624 | 0.615 | 0.388 | 0.485 | 0.281 |
